In US8623595B2, “Inactivation of reverse transcriptases by azido-diarylpyrimidines” (Photoimmune Biotechnology Inc., priority 2010, dated 2014):
Like-named read-outs stand apart in the source and are kept apart here.

System: HIV-1
Conditions: for time within which capacity to inactivate HIV-1 reverse transcriptase was lost / permanence of HIV-1 reverse transcriptase inactivation: 10 nM compound, HIV-1 in MT-2 cells
Protocol: MT-2 cells were contacted with HIV-1 TCID50, and 0, 2, 10, 20, or 50 nM of either DAPY (TMC120-R147681) or azido-DAPY were placed on 50μ/well plates. The plates were placed on ice for 20 minutes and then irradiated at 7.5 cm from a UV light source (UVP lamp model UVGL-25) that provides UV light at a wavelength of 365 nm and an intensity of 1.14 W/cm^2 for a period of 20 minutes. Studies of HIV-1 infected MT-2 cells contacted with DAPY but not UV irradiated, and HIV-1 infected MT-2 cells that were irradiated but not contacted with DAPY or azido-DAPY were also performed.
The inactivation of HIV was evaluated by a reverse transcriptase activity assay as described by Xu et al. (2009). The measurements are provided in counts per minute (cpm).

## Cc1cc(C)c(Nc2ccnc(Nc3ccc(C#N)cc3)n2)c(C)c1 [DAPY, dapivirine]
With UV light treatment
  time within which capacity to inactivate HIV-1 reverse transcriptase was lost: ≤ 16 days
With UV light
  permanence of HIV-1 reverse transcriptase inactivation: inability to produce a permanent inactivation
Without UV light treatment
  time within which capacity to inactivate HIV-1 reverse transcriptase was lost: ≤ 16 days
Without UV light
  permanence of HIV-1 reverse transcriptase inactivation: inability to produce a permanent inactivation
Compound + UV light exposure, time-exposure studies
  inactivation of HIV-1 in time-exposure studies: not observed
